# Test results reported in paper PMC12787074, “Involvement of Multiple Ion Channels and Receptors in Mediating the Insecticidal and Repellent Actions of Limonene” (International Journal of Molecular Sciences, 2025).
# Key:
# Type in all cases: cell-based
# [1] = molecular target: T1, AaegRdl1-1 (Rdl, resistance to dieldrin GABA receptor) (Aedes aegypti, UniProt Q16896); assay: two-electrode voltage clamp in Xenopus oocytes; agonist-evoked chloride current
# T1 construct: AaegRdl1-1 clone expressed in Xenopus oocytes
# T1 sequence (Q16896 entry or part of it): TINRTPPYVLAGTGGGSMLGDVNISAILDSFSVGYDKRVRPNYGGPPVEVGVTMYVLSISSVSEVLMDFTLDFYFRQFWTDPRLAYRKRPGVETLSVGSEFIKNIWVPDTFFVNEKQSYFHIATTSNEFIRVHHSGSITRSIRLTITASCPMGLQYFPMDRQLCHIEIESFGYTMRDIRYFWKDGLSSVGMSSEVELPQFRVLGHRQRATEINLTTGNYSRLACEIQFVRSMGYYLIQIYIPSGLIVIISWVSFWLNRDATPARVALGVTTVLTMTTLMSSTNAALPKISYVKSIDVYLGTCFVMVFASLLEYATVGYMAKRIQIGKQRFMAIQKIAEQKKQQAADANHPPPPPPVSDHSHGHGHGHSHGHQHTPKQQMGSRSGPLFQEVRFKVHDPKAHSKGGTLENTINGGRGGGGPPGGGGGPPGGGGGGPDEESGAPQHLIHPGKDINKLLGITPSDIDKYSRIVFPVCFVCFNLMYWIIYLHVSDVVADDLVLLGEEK
# [2] = molecular target: T1, AaegRdl1-1 (Rdl, resistance to dieldrin GABA receptor); assay: two-electrode voltage clamp in Xenopus oocytes; block of GABA current
# [3] = molecular target: T1, AaegRdl1-1 (Rdl, resistance to dieldrin GABA receptor); assay: two-electrode voltage clamp in Xenopus oocytes; potentiation of […] GABA current
structure (smiles),measurement,setting,value
NCCCC(=O)O [GABA],EC50,[1],204 ± 18.3 µM
N#Cc1nn(-c2c(Cl)cc(C(F)(F)F)cc2Cl)c(N)c1[S+]([O-])C(F)(F)F (stereo not drawn) [fipronil],two-electrode voltage clamp in Xenopus oocytes; block of GABA current,[2],"IGABA was blocked by the application of a positive control, fipronil, as expected (Supplementary Figure S2)"
C=C(C)[C@H]1CC=C(C)CC1 [limonene],EC50,[3],43.3 ± 4.6 µM
